In brackets after ≈: the same amount, converted by molar mass.
Key:
[1] = Antiproliferative activity against human GTL16 cells after 72 hrs; conditions: GTL 16, 72 h
[2] = Plasma clearance in rat at 2 mg/kg, iv and 4 mg/kg, po; assay type: ADME, organism-based
[3] = Half life in rat at 2 mg/kg, iv and 4 mg/kg, po; assay type: ADME, organism-based; conditions: in vivo
[4] = Oral bioavailability in rat at 4 mg/kg; assay type: ADME, organism-based; conditions: in vivo
[5] = target: Voltage-gated inwardly rectifying potassium channel KCNH2 (Homo sapiens, UniProt Q12809); assay: Inhibition of Kv11.1 channel
Cytochrome P450 3A4 = Cytochrome P450 3A4 (Homo sapiens, UniProt P08684); assay: Inhibition of CYP3A4; assay type: ADME
Cytochrome P450 2C9 = Cytochrome P450 2C9 (Homo sapiens, UniProt P11712); assay: Inhibition of CYP2C9; assay type: ADME
Cytochrome P450 2D6 = Cytochrome P450 2D6 (Homo sapiens, UniProt P10635); assay: Inhibition of CYP2D6; assay type: ADME
[6] = Lipophilicity, log P of the compound; assay type: physicochemical; conditions: octanol/water
[7] = Solubility of the compound at pH 7.4; assay type: physicochemical; conditions: buffer
[8] = Inhibition of potassium channel IKr
[9] = Half life in rat at 2 mg/kg, iv; assay type: ADME, organism-based; design: dose 2 mg/kg, route intravenous; conditions: in vivo
[10] = Plasma clearance in rat at 2 mg/kg, iv; assay type: ADME, organism-based; design: dose 2 mg/kg, route intravenous
[11] = Volume of distribution at steady state in rat at 2 mg/kg, iv; assay type: ADME, organism-based; design: dose 2 mg/kg, route intravenous; conditions: in vivo, read-out: Vdss
Rattus norvegicus = assay: Volume of distribution at steady state in rat at 1 mg/kg, iv and po; assay type: ADME, organism-based; design: dose 1 mg/kg, route oral; conditions: in vivo
[12] = Half life in rat at 1 mg/kg, iv and po; assay type: ADME, organism-based; design: dose 1 mg/kg, route oral; conditions: in vivo
[13] = Oral bioavailability in rat at 1 mg/kg; assay type: ADME, organism-based; conditions: in vivo
[14] = Plasma clearance in rat at 0.31 mg/kg, iv and 0.62 mg/kg, po; assay type: ADME, organism-based
[15] = Volume of distribution at steady state in rat at 0.31 mg/kg, iv and 0.62 mg/kg, po; assay type: ADME, organism-based; conditions: in vivo, read-out: Vdss
[16] = Half life in rat at 0.31 mg/kg, iv and 0.62 mg/kg, po; assay type: ADME, organism-based; conditions: in vivo
[17] = Oral bioavailability in rat at 0.62 mg/kg; assay type: ADME, organism-based; conditions: in vivo
[18] = target: T1, Hepatocyte growth factor receptor (Homo sapiens, UniProt P08581)
[19] = Volume of distribution at steady state in rat at 2 mg/kg, iv and 4 mg/kg, po; assay type: ADME, organism-based; conditions: in vivo, read-out: Vdss
[20] = target: T1, Hepatocyte growth factor receptor; assay: Inhibition of c-MET overexpressed in human GTL-16 cells assessed as phosphorylation at C-terminal Y1349 after 2 hrs by Western blot analysis; assay type: cell-based

CN(C)CCCn1cc(-c2cnc3ccc4ccc(NS(=O)(=O)N(C)C)cc4c(=O)c3c2)cn1
IC50 [1]: 1100 nM

CN(C)S(=O)(=O)Nc1ccc2ccc3ncc(-c4cnn(CC(=O)N5CCOCC5)c4)cc3c(=O)c2c1
IC50 [1]: 1700 nM

CS(=O)(=O)Nc1ccc2ccc3ncc(-c4ccccc4)cc3c(=O)c2c1
IC50 [1]: > 50000 nM
clearance [2]: 24 mL/min/kg
half-life [3]: 0.5 h
bioavailability [4]: 2%
IC50 [5]: 290 nM
IC50 (Cytochrome P450 3A4): > 50000 nM
IC50 (Cytochrome P450 2C9): > 50000 nM
IC50 (Cytochrome P450 2D6): > 50000 nM
logP [6]: 3.15
solubility [7]: 0.5 µg/mL (≈ 1.33 µM)

CN(C)S(=O)(=O)Nc1ccc2ccc3ncc(-c4cnn(CCCO)c4)cc3c(=O)c2c1
IC50 [1]: 370 nM

Cn1cc(-c2cnc3ccc4ccc(NS(N)(=O)=O)cc4c(=O)c3c2)cn1
IC50 [1]: 990 nM
IC50 [5]: 4300 nM

Cn1cc(-c2cnc3ccc4ccc(NS(C)(=O)=O)cc4c(=O)c3c2)cn1
IC50 [1]: 1900 nM
clearance [2]: 40 mL/min/kg
half-life [3]: 0.5 h
IC50 [5]: 10100 nM
IC50 [8]: 330 nM

Cn1cc(-c2cnc3ccc4ccc(NS(=O)(=O)N5CC(F)C5)cc4c(=O)c3c2)cn1
IC50 [1]: 2400 nM
half-life [9]: 1.8 h
clearance [10]: 2.9 mL/min/kg
Vd [11]: 0.41 L/kg

CCN1CCC(n2cc(-c3cnc4ccc5ccc(NS(=O)(=O)N(C)C)cc5c(=O)c4c3)cn2)CC1
IC50 [1]: 55 nM

CN(Cc1cnccn1)S(=O)(=O)Nc1ccc2ccc3ncc(-c4cnn(C)c4)cc3c(=O)c2c1
IC50 [1]: 1100 nM
half-life [9]: 0.7 h
clearance [10]: 39 mL/min/kg
Vd [11]: 2.4 L/kg
IC50 [5]: 7100 nM

Cn1cc(-c2cnc3ccc4ccc(NS(=O)(=O)N5CCC5)cc4c(=O)c3c2)cn1
IC50 [1]: 1100 nM
Vdss (Rattus norvegicus): 0.95 L/kg
half-life [12]: 3.3 h
bioavailability [13]: 29%

CN([C@H]1CCOC1)S(=O)(=O)Nc1ccc2ccc3ncc(-c4cnn(C)c4)cc3c(=O)c2c1
IC50 [1]: 570 nM
clearance [14]: 11 mL/min/kg
Vd [15]: 1.1 L/kg
half-life [16]: 1.2 h
bioavailability [17]: 38%
IC50 [5]: > 30000 nM

COCC(F)Cn1cc(-c2cnc3ccc4ccc(NS(=O)(=O)N(C)C)cc4c(=O)c3c2)cn1 (racemic)
IC50 [1]: 54 nM

CN(Cc1ccccc1)S(=O)(=O)Nc1ccc2ccc3ncc(-c4cnn(C)c4)cc3c(=O)c2c1
IC50 [1]: 50000 nM
IC50 [5]: > 30000 nM

CS(=O)(=O)Nc1ccc2ccc3nccc(Cl)c3c(=O)c2c1
IC50 [18]: > 10000 nM

Cn1cc(-c2cnc3ccc4ccc(NS(=O)(=O)N5CCOCC5)cc4c(=O)c3c2)cn1
IC50 [1]: 11000 nM

CCCn1cc(-c2cnc3ccc4ccc(NS(=O)(=O)N(C)C)cc4c(=O)c3c2)cn1
IC50 [1]: 780 nM

CN(C)S(=O)(=O)Nc1ccc2ccc3ncc(-c4cnn(CCF)c4)cc3c(=O)c2c1
IC50 [1]: 610 nM

CCN(CC)S(=O)(=O)Nc1ccc2ccc3ncc(-c4cnn(C)c4)cc3c(=O)c2c1
IC50 [1]: 2200 nM

CNS(=O)(=O)Nc1ccc2ccc3ncc(-c4cnn(C)c4)cc3c(=O)c2c1
IC50 [1]: 750 nM
clearance [2]: 33.8 mL/min/kg
Vd [19]: 2.5 L/kg
half-life [3]: 0.9 h
bioavailability [4]: 33%

CS(=O)(=O)Nc1ccc2c(=O)c3cc(-c4ccccc4)cnc3ccc2c1
IC50 [18]: > 10000 nM

CN(C[C@H]1COCCO1)S(=O)(=O)Nc1ccc2ccc3ncc(-c4cnn(C)c4)cc3c(=O)c2c1
IC50 [20]: 210 nM
IC50 [1]: 2800 nM
IC50 [5]: > 30000 nM
IC50 [18]: 14 nM

CN(C)S(=O)(=O)Nc1ccc2ccc3ncc(-c4cnn(C)c4)cc3c(=O)c2c1
IC50 [5]: > 30000 nM
IC50 [8]: > 30000 nM

CN(C)S(=O)(=O)Nc1ccc2ccc3ncc(-c4cnn(CC(F)CO)c4)cc3c(=O)c2c1 (racemic)
IC50 [1]: 270 nM

CN(C)S(=O)(=O)Nc1ccc2ccc3ncc(-c4cnn(-c5ccccn5)c4)cc3c(=O)c2c1
IC50 [1]: 1300 nM

COCCCN(C)S(=O)(=O)Nc1ccc2ccc3ncc(-c4cnn(C)c4)cc3c(=O)c2c1
IC50 [1]: 1500 nM
half-life [9]: 1.3 h
clearance [10]: 10.7 mL/min/kg
Vd [11]: 1.1 L/kg
IC50 [5]: > 30000 nM

Source: ChEMBL document CHEMBL1800066 (J Med Chem, 2011)
